Assay [1] relates to neutrophils. Briefly: Neutrophil recruitment to the necrotic zone following sterile liver injury (heat injury). Format: in vivo. To be noted: 4 h after heat injury; spinning disc time-lapse microscopy; FIG. 9B.
For assay [2], the system named is neutrophils. Briefly: Neutrophil intraluminal crawling following fMLP-mediated arrest in vivo (intravital microscopy, cremaster). Particulars: compared to vehicle control; cremaster superfused with fMLP (10 μM), time-lapse microscopy 2 h; FIG. 9A. From the text: Following post-adhesion strengthening, neutrophils undertake Mac-1 (an integrin) dependent migratory activity on the vascular side of the vessel wall prior to transmigration ([…] and Zarbock 2013). Previous studies have highlighted the importance of this step for successful neutrophil recruitment (Phillipson et al. 2006). To investigate the effects of Btk inhibition on this step of the leukocyte recruitment cascade, intraluminal crawling following fMLP (N-formylmethionine-leucyl-phenylalanine)-mediated arrest in vivo was investigated. Using intravital microscopy, intravascular crawling of neutrophils was examined as described previously (Phillipson et al. 2006). Briefly, anti-Gr-1 antibody (clone RB6-8C5), labelled with Alexa Fluor 488 (Molecular Probes, Eugene, Oreg., USA), was injected via the cannulated carotid artery prior to the experiment. Following preparation and exteriorization, the cremaster was superfused with fMLP (10 μM) and time-lapse microscopy was performed for 2 h. The number of adherent cells was determined.

Assay [3] has as its system BioMAP human primary cell-based co-culture systems. The assay can be described thus: BioMAP Diversity PLUS Panel. To be noted: FIG. 8. The source says: The BioMAP Diversity Plus Panel (FIG. 7) provides broad phenotypic profiles for pharmaceutically active agents. The panel uses 12 individual BioMAP human primary cell-based co-culture systems to predictively model drug effects on multiple tissues and disease states, providing 148 clinically relevant biomarker readouts. […] The LDLR gene is associated with the low-density lipoprotein receptor, which binds low-density lipoproteins that carry cholesterol in blood. […] Decreased MCP-1, sTNFα, eotaxin-3, ICAM-1, IL-la, and IL-8 and increased sPGE2 is associated with PRN1008's inflammation related activities. Decreased CD38, sIgG, sIL-17A, sIL-2, sIL-6, and M-CSF and increased CD69 are associated with PRN1008's immunomodulatory activities. Decreased MMP-9, uPA, and PAI-I is associated with PRN 1008's tissue remodeling activities. Decreased thrombomodulin (TM) and modulated tissue factor (TF) is associated with PRN1008's hemostasis-related activities. Thus, the BioMAP Diversity Plus Panel data for PRN1008 supports its anti-inflammatory and cytokine inhibition mechanisms.

For assay [4], the system named is anti-GBM glomerulonephritis. The assay can be described thus: Mouse anti-GBM glomerulonephritis model. Type of assay: in vivo. To be noted: for kidney pathology: kidney histology after Study Day 10, relative to Dex 1 mg/kg QD. How it is done: The mouse anti-GBM glomerulonephritis model involves antibody mediated autoimmunity, and the model is histologically and mechanistically similar to glomerulonephritis in humans. The model also includes kidney deposition of immune complexes (IC), targeting glomerular basement membrane. The efficacy of Compound (IB) (also referred to as PRN1008) relative to the corticosteroid dexamethasone (Dex) was tested in a mouse anti-GBM glomerulonephritis model according to the design shown in FIG. 1. Briefly, to induce glomerulonephritis, mice were pre-sensitized with sheep IgG/FCA (Study Day −5). Five days later (Study Day 0), the mice received anti-GBM sheep IgG. Treatment with vehicle, Compound (IB), or Dex with various dosage regimes (Compound (IB): 10 mg/kg, 20 mg/kg, or 40 mg/kg QD or 20 mg/kg BID; Dex: 1 mg/kg QD; Vehicle: QD or BID) began at Study Day −1, one day prior to injection with anti-GBM sheep IgG. Treatment continued until Study Day 10, for […] treatment in total. Urine protein analysis was conducted on Study Days −6, −4, −1, 1, 3, 6, 8, and 10. Following Study Day 10, mice serum BUN levels were analyzed as a measure of kidney function, and kidney histology was performed.

Setting [5] is: inflammation related activities.

In the case of `CC(C)(C)C=C(C#N)C(=O)N1CCC[C@@H](n2nc(-c3ccc(Oc4ccccc4)cc3F)c3c(N)ncnc32)C1` [Compound (IA), (R)-2-(3-(4-amino-3-(2-fluoro-4-phenoxyphenyl)-1H-pyrazolo[3,4-d]pyrimidin-1-yl)piperidine-1-carbonyl)-4,4-dimethylpent-2-enenitrile], in the assay with neutrophils [1], the “neutrophil recruitment following sterile liver injury” value is “abolish neutrophil recruitment”. Besides, the “migratory activity of neutrophils (arrested cells that crawled)” value with neutrophils [2] is on record as “severely decreased”.
Consider `CC(C)(C=C(C#N)C(=O)N1CCC[C@@H](n2nc(-c3ccc(Oc4ccccc4)cc3F)c3c(N)ncnc32)C1)N1CCN(C2COC2)CC1` [Compound (IB), 2-[(3R)-3-[4-amino-3-(2-fluoro-4-phenoxy-phenyl)pyrazolo[3,4-d]pyrimidin-1-yl]piperidine-1-carbonyl]-4-methyl-4-[4-(oxetan-3-yl)piperazin-1-yl]pent-2-enenitrile], for which, in assay [3] (BioMAP Profile), the LDLR entry is reported as “decreased”; the “anti-proliferative activity, B cells” value was “Anti-proliferative activities”; the “anti-proliferative activity, T cells” value is given as “Anti-proliferative activities”; the “anti-proliferative activity, coronary artery smooth muscle cells” value is reported as “Anti-proliferative activities”. Moreover, in assay [3] (BioMAP Profile), the “anti-proliferative activity, endothelial cells” value is reported as “Anti-proliferative activities” and the “anti-proliferative activity, fibroblasts” value is given as “Anti-proliferative activities”. Besides, in assay [3] (hemostasis-related activities), the “thrombomodulin (TM)” value is listed as “Decreased” and the “tissue factor (TF)” value is on record as “modulated”. Also, in assay [3] (immunomodulatory activities), the CD38 result is recorded as “Decreased”, the CD69 entry is recorded as “increased”, the M-CSF result is given as “Decreased” and the sIL-2 entry is given as “Decreased”. Also, in assay [3] (immunomodulatory activities), the sIL-6 entry is “Decreased”, the sIL-17A result was “Decreased” and the sIgG result is on record as “Decreased”. For the same compound, in assay [3] (setting [5]), the ICAM-1 result is recorded as “Decreased”, the IL-8 result was “Decreased”, the IL-la result is recorded as “Decreased” and the MCP-1 entry is listed as “Decreased”. Moreover, in assay [3] (setting [5]), the eotaxin-3 result was “Decreased”, the sPGE2 result is listed as “increased” and the sTNFα entry is reported as “Decreased”. In assay [3] (tissue remodeling activities), the MMP-9 result was “Decreased”, the PAI-I entry was “Decreased” and the uPA result is “Decreased”. The “kidney weight gain (a surrogate for kidney inflammation)” value in assay [4] (10, 20 or 40 mg/kg QD or 20 mg/kg BID, FIG. 5) is “dose dependent inhibition”. Further, the “serum blood urea nitrogen (BUN) levels” value in assay [4] (10, 20 or 40 mg/kg QD or 20 mg/kg BID, Study Day -1 to 10, FIG. 2) is on record as “dose dependent inhibition”. Also, the severe proteinuria result in assay [4] (10, 20 or 40 mg/kg QD or 20 mg/kg BID, Study Day -1 to 10, FIG. 3) is listed as “dose dependent inhibition”. Moreover, in assay [4] (FIG. 6), the kidney pathology result is “reduced kidney pathology”. Moreover, in assay [4] (FIG. 6, listed as PRN1008), the kidney pathology entry is “significantly reduced kidney pathology, superior to a steroid comparator (Dex)”. In addition, the “proteinuria during the study” value in assay [4] (urine protein analysis Study Days -6 to 10, FIG. 4) is listed as “reduced proteinuria”.

The values are drawn from US20230158031A1, “Treatment of Acute Respiratory Distress Syndrome and Other Disorders Involving Cytokine Storm Using BTK Inhibitors” (Principia Biopharma Inc., priority 2020, published 2023).
